Converted amounts (≈) assume the structure as drawn. Like-named read-outs stand apart in the source and are kept apart here.
Assays:
Assay type in all cases: cell-based, Mycobacterium tuberculosis
Mtb TC 12561 = assay: Resazurin (Alamar Blue) drug susceptibility testing, TC 12561
Mtb MT 182 = assay: Resazurin (Alamar Blue) drug susceptibility testing, MT 182
Mtb TH 12768 = assay: Resazurin (Alamar Blue) drug susceptibility testing, TH 12768
[1] = test system: Mtb H37Rv thyX Tet-OFF conditional knockdown mutant

SMILES | MIC (Mtb TC 12561; read-out: MIC) [µM] | MIC (Mtb MT 182; read-out: MIC) [µM] | MIC (Mtb TH 12768; read-out: MIC) [µM] | other results
CO[C@H]1/C=C/O[C@@]2(C)Oc3c(C)c(O)c4c(O)c(c(/C=N/N5CCN(C)CC5)c(O)c4c3C2=O)NC(=O)/C(C)=C\C=C\[C@H](C)[C@H](O)[C@@H](C)[C@@H](O)[C@@H](C)[C@H](OC(C)=O)[C@@H]1C [RMP, rifampicin, reference compound] | – | – | – | MIC (Mtb TC 12561; Mycobacterium tuberculosis, TC12561): 4.86 µM (≈ 4 µg/mL); MIC (Mtb MT 182; Mycobacterium tuberculosis, MT182): 1.21 µM (≈ 0.996 µg/mL); MIC (Mtb TH 12768; Mycobacterium tuberculosis, TH12768): < 0.3 µM
CS(=O)(=O)N1CCN(C2=C(Cl)C(=O)c3ccccc3C2=O)CC1 [Compound E1, 2-chloro-3-(4-methanesulfonylpiperazin-1-yl)-1,4-dihydronaphthalene-1,4-dione] | – | – | – | MIC90 shift (increase in potency) upon ThyX depletion [1]: ≥ 4 fold
O=C1C(O)=C(Cc2ccc(F)c(Cl)c2)C(=O)c2ccccc21 [Compound 010F] | 49.3 (≈ 15.6 µg/mL) | 98.7 (≈ 31.3 µg/mL) | 197.3 (≈ 62.5 µg/mL) | –
O=C1C(O)=C(Cc2ccc(Oc3ccccc3)cc2)C(=O)c2ccccc21 [Compound 007G] | 87.8 (≈ 31.3 µg/mL) | 87.8 (≈ 31.3 µg/mL) | 175.5 (≈ 62.5 µg/mL) | –
O=C1C(O)=C(Cc2cc(F)cc(F)c2)C(=O)c2ccccc21 [Compound 010B] | 104.1 (≈ 31.3 µg/mL) | 104.1 (≈ 31.3 µg/mL) | 52.1 (≈ 15.6 µg/mL) | –
COc1cc(CC2=C(O)C(=O)c3ccccc3C2=O)ccc1O [Compound 010H] | 201.4 (≈ 62.5 µg/mL) | 100.7 (≈ 31.2 µg/mL) | 201.4 (≈ 62.5 µg/mL) | –
O=C1C(O)=C(Cc2ccco2)C(=O)c2ccccc21 [Compound 010C] | 176.5 (≈ 44.9 µg/mL) | 176.5 (≈ 44.9 µg/mL) | 176.5 (≈ 44.9 µg/mL) | –
O=C1C(O)=C(Cc2ccc(F)c(C(F)(F)F)c2)C(=O)c2ccccc21 [Compound 010E] | 22.3 (≈ 7.81 µg/mL) | 22.3 (≈ 7.81 µg/mL) | 22.3 (≈ 7.81 µg/mL) | –
O=C1C(O)=C(Cc2ccc(OC(F)(F)F)cc2)C(=O)c2ccccc21 [Compound 007C] | 44.9 (≈ 15.6 µg/mL) | 44.9 (≈ 15.6 µg/mL) | 44.9 (≈ 15.6 µg/mL) | –
COc1ccc(CC2=C(O)C(=O)c3ccccc3C2=O)cc1OC [Compound 010K] | 192.7 (≈ 62.5 µg/mL) | 385.4 (≈ 125 µg/mL) | 192.7 (≈ 62.5 µg/mL) | –
O=C1C(O)=C(Cc2cccs2)C(=O)c2ccccc21 [Compound 010D] | 57.8 (≈ 15.6 µg/mL) | 462.4 (≈ 125 µg/mL) | 231.2 (≈ 62.5 µg/mL) | –
CCCCC1=C(O)C(=O)c2ccccc2C1=O [Compound 010I] | 271.4 (≈ 62.5 µg/mL) | 135.7 (≈ 31.2 µg/mL) | 135.7 (≈ 31.2 µg/mL) | –
CC(C)Oc1ccc(CC2=C(O)C(=O)c3ccccc3C2=O)cc1 [Compound 007D] | 96.9 (≈ 31.2 µg/mL) | 96.9 (≈ 31.2 µg/mL) | 96.9 (≈ 31.2 µg/mL) | –
O=C1C(O)=C(Cc2ccc(-c3ccc(Cl)cc3)cc2)C(=O)c2ccccc21 [Compound 007B] | 83.4 (≈ 31.3 µg/mL) | 83.4 (≈ 31.3 µg/mL) | 41.7 (≈ 15.6 µg/mL) | –
CCOC(=O)C1=C(c2ccc(C)cc2)C(=O)c2ccccc2C1=O [Compound B6, ethyl 3-(4-methylphenyl)-1,4-dioxonaphtalene-2-carboxylate] | – | – | – | MIC90 shift (increase in potency) upon ThyX depletion [1]: no shift
O=C1C(O)=C(Cc2ccc(Cl)cc2)C(=O)c2ccccc21 [Compound 010A] | 52.3 (≈ 15.6 µg/mL) | 104.6 (≈ 31.2 µg/mL) | 104.6 (≈ 31.2 µg/mL) | –
NNC(=O)c1ccncc1 [INH, isoniazid, reference compound] | – | – | – | MIC (Mtb TC 12561; Mycobacterium tuberculosis, TC12561, read-out: MIC): 14.6 µM (≈ 2 µg/mL); MIC (Mtb MT 182; Mycobacterium tuberculosis, MT182, read-out: MIC): < 0.91 µM; MIC (Mtb TH 12768; Mycobacterium tuberculosis, TH12768, read-out: MIC): 3.64 µM (≈ 0.499 µg/mL)
O=C1C(O)=C(Cc2ccc(C(F)(F)F)cc2)C(=O)c2ccccc21 [Compound 007F] | 47.0 (≈ 15.6 µg/mL) | 94.1 (≈ 31.3 µg/mL) | 94.1 (≈ 31.3 µg/mL) | –
COC1=C(OC)C(=O)C(CCCCCCCCCCO)=C(C)C1=O [Idebenone, idebenone, reference compound] | – | – | – | Growth inhibition [1]: ~ 90%
